Here are results for one substance from patent publication US8119589B2, “Modulation of CD4+ T cell responses by a tick saliva protein, Salp15 and polypeptides derived therefrom” (University of North Carolina at Charlotte, priority 2004, dated 2012).

The subject of one assay is CD4+ T cells. Kind of assay: Lipid raft redistribution (CTB594 staining, receptor capping) in activated CD4+ T cells. It counts as cell-based, mouse. The conditions noted are these: Salp15 treatment prior to anti-CD3/CD28 stimulation, murine cells. The method, then:
Naïve CD4+ T cells from C3H/HeN, Balb/c, and B10.BR mice were purified as previously described (Anguita et al., 2002). CD4+ T cells were preincubated in Click's modified Bruff's Medium (Sigma Chemical Co., St. Louis, Mo., U.S.A.) for 10 minutes at 37° C. with and without Salp15 (50 μg/mL) and stimulated for 20 min or the indicated times at 37° C. with 10 μg/mL of anti-CD3ε, 1 μg/mL of anti-CD28, and 10 μg/mL of anti-armenian and syrian hamster IgG (BD Biosciences Pharmingen, San Jose, Calif., U.S.A.). Jurkat (E6-1) cells were stimulated using 5 μg/mL of OKT3 mAb (eBioscience, San Diego, Calif., U.S.A.) and 1 μg/mL of anti-human CD28 cross linked with 5 μg/mL anti-mouse IgG for the indicated times.
For the visualization of lipid rafts, phospho-tyrosine, and cytoskeleton reorganization, CD4^+, CD8^+ or Jurkat cells were cytospun for 10 minutes at 1000 RPM onto positively charged microslides (Fisher Scientific, Hampton, N.H., U.S.A.). The cells were fixed with 3.7% paraformaldehyde (Sigma Chemical Co.) for 15 minutes and stained with CTB594 (Molecular Probes, Eugene, Oreg., U.S.A.), AlexaFluor488 labeled phalloidin (Molecular Probes) or (1:50) biotin-conjugated anti-p-Tyr (PY99) followed by Streptavidin-AlexaFluor594 (1:100, Molecular Probes). For p-LAT and p-PLCγ1 staining, fixed cells were treated with PBS containing 0.1% Triton-X 100 and 100 mM glycine for 15 min at room temperature and stained using rabbit p-LAT (Tyr^191) or rabbit anti-p-PLCγ1 (Tyr^783) probed with anti-rabbit IgG488 (Molecular Probes).
For receptor capping studies, mouse primary B and CD11^+ cells were purified by positive selection using biotin anti-mouse CD45R/B220 clone RA3-6B2 and biotin anti-mouse CD11b clone M1/70 (BD Biosciences Pharmingen) respectively, followed by incubation with magnetic microbeads. The cells were analyzed for receptor capping using 25 μg/mL anti-mouse IgM and 25 μg/mL anti-mouse CD16/CD32 respectively, cross-linked with 25 μg/mL of anti-rat IgG594 for 10 min in the presence or absence of 50 μg/mL of Salp15. […]

The next assay has as its system R-EAE in SJL/J mice. Kind of assay: Relapsing-EAE model in PLP139-151 immunized SJL mice. It counts as in vivo, mouse. The method, then:
SJL/J mice in groups of 18 are injected i.p. with 200 μg of PLP peptide 139-151 (HSLGKWLGHPDKF; SEQ ID NO: 15) (Research Genetics, Huntsville, Ala., U.S.A.). Please note that the original Cysteine has been substituted by serine for stability purposes. […] One group of mice receives daily injections of 50 μg of recombinant Salp15 produced in a Drosophila expression system, starting day 10 after immunization. This regime permits an efficient in vivo activation of PLP139-151-specific CD4^+ T cell activation. Since Salp15 has no effect on effector CD4^+ T cells (Anguita et al., 2002.), its function is expected to be circumscribed to the activation of neoreactive CD4^+ T cells. […]
At days 12 (including the 3 control mice treated with Salp15 over the course of the immunization), 14, 17, 20, 30 and 60 post-infection, 3 mice from each group are sacrificed and analyzed as follows: splenic CD4^+ T cells are purified by negative selection using biotinylated antibodies against CD8a, Ly6G, Mac-I, B220, class II (I-A^k and I-E^k) and panNK molecules (BD Biosciences Pharmingen, San Jose, Calif., U.S.A.), followed by incubation with Avidin bound to magnetic microbeads and passage through a magnetic column (Miltenyi Biotec, Auburn, Calif., U.S.A.). […]
Peripheral responses to relapsing epitopes are assessed by the analysis of delayed type hypersensitivity (DTH). […]

Regarding “Salp15: secreted salivary protein from Ixodes scapularis, SEQ ID NO: 2; recombinant His-tagged, produced in Drosophila S2 cells”, the Lipid raft clustering entry in the assay on CD4+ T cells is on record as “reduced”. In addition, the “Activation of CD4+ T cells in response to new epitopes (epitope spreading)” value with R-EAE in SJL/J mice (daily 50 μg Salp15 from day 10 after immunization) is on record as “lowered activation”. Further, the Degree of demyelination result in the assay on R-EAE in SJL/J mice (histology of brains and spinal cords) was “lower degree of demyelination”.
